According to the NIST ThermoML archive (doi:10.1016/j.jct.2018.12.006):
Numbers after ± are expanded uncertainties.

Conditions: 101.33 kPa, Crystal; for molar entropy: Small (less than 1 g) adiabatic calorimetry; for mass density: X-ray diffraction

C[N+](C)(C)C[C@H](O)CC(=O)[O-] [(R)-3-hydroxy-4-(trimethylammonio)butanoate]
Conditions	mass density [kg/m3]	molar entropy [J/K/mol]
5 K	–	0.0967 ± 0.025
10 K	–	0.77 ± 0.058
15 K	–	2.46 ± 0.16
20 K	–	5.34 ± 0.33
25 K	–	8.973 ± 0.18
30 K	–	13 ± 0.26
35 K	–	17.28 ± 0.33
40 K	–	21.73 ± 0.39
45 K	–	26.33 ± 0.29
50 K	–	31.04 ± 0.33
60 K	–	40.65 ± 0.4
70 K	–	50.3 ± 0.48
80 K	–	59.86 ± 0.56
90 K	–	69.27 ± 0.66
100 K	–	78.52 ± 0.72
110 K	–	87.63 ± 0.79
120 K	–	96.63 ± 0.85
130 K	–	105.5 ± 0.9
140 K	–	114.3 ± 1
150 K	1256 ± 6	122.9 ± 1
160 K	–	131.4 ± 1.1
170 K	–	139.9 ± 1.2
175 K	1250 ± 6	–
180 K	–	148.2 ± 1.2
190 K	–	156.4 ± 1.3
200 K	1253 ± 6	164.5 ± 1.3
210 K	–	172.5 ± 1.4
220 K	–	180.3 ± 1.5
225 K	1247 ± 6	–
230 K	–	188.1 ± 1.5
240 K	–	195.9 ± 1.6
250 K	1247 ± 6	203.6 ± 1.6
260 K	–	211.2 ± 1.7
270 K	–	218.8 ± 1.7
273.15 K	–	221.2 ± 1.8
275 K	1250 ± 6	–
280 K	–	226.4 ± 1.8
290 K	–	233.9 ± 1.9
298.15 K	–	240.1 ± 1.9
300 K	1245 ± 6	241.5 ± 1.9
310 K	–	249 ± 2
320 K	–	256.5 ± 2
325 K	1236 ± 6	–
330 K	–	264 ± 2.1
340 K	–	271.5 ± 2.1
350 K	1239 ± 6	279 ± 2.2
375 K	1242 ± 6	–
400 K	1236 ± 6	–
425 K	1236 ± 7	–
